Earlier results in article PMC9410468 (Marine Drugs, 2022).

Tested on: rats
Settings: rats; selective α3β4 nAChR antagonists; cited from earlier work
Description: In the mammalian brain, the medial habenula (MHB) expresses high nAChR levels. Recently, α3-containing nAChRs present in the medial habenula have attracted substantial attention because of their potential role in influencing nicotine addiction. In addition, recent studies have shown that the gene polymorphism of the α3 and β4 subunits in vivo are related to nicotine addiction and drug abuse. The α3β4 nAChR subtype is mainly located in the MHB, […] (IPN), and fasciculus retroflexus (FR) of the rat brain. In addition, it is also expres ...

Compound: COCC[C@H]1CC2CN3CCc4c([nH]c5ccccc45)[C@](C(=O)OC)(C2)[C@H]13 [18-methoxycoronaridine (18-MC), 18-methoxycoronaridine]
- effect on nicotine self-administration (in words): reduce nicotine self-administration in rats
